In brackets after ≈: the same amount, converted by molar mass.
Legend:
[1] = Aqueous kinetic solubility assay; assay type: physicochemical; details: PBS, pH 7.4; n = 3
Procedure: The aqueous kinetic solubility was determined from a 10 mM DMSO stock solution of test compound in PBS at pH 7.4. The study was performed by incubation of an aliquot of 10 mM DMSO stock solution in PBS (pH 7.4) at a target concentration of 250 μM (2.5% DMSO). The incubation was carried out under shaking at 25 °C for 24 h, followed by centrifugation at 21,100g for 30 min. The supernatant was further diluted (4:1) with CH3CN and the dissolved test compound was quantified by UV at 215 nm on a Waters ACQUITY UPLC/MS system consisting of an SQD mass spectrometer equipped with an electrospray ionization interface and a photodiode array detector. Electrospray ionization in the positive mode was used in the mass scan range of 100–500 Da. The PDA range was 210–400 nm. The analyses were run on an ACQUITY UPLC BEH C18 column (50 × 2.1 mm ID, particle size 1.7 μm) with a VanGuard BEH C18 precolumn (5 × 2.1 mm ID, particle size 1.7 μm) using 10 mM NH4OAc in H2O at pH 5 adjusted with AcOH (A) and 10 mM NH4OAc in CH3CN–H2O (95:5) at pH 5 (B) as the mobile phase.

[2] = tested on: HepG2 cells; experiment: HepG2 cell toxicity assay (CTG and MTT); assay type: cell-based; details: at 20 μM, 24 h, CTG and MTT assays; percent of vehicle-treated controls
Procedure: In order to assess a possible liver toxicity liability, the selected analogues were also tested in HepG2 cells at two concentrations (2.0 and 20 μM) for 24 h, along with a reference compound (rotenone). A reduction of cell viability to less than 80% was set as the threshold for estimation of cytotoxicity.[42]
To increase the detection of drug-induced mitochondrial effects in a preclinical cell-based assay, HepG2 hepatocellular carcinoma cells (ATCC HB-8065) were forced to rely on mitochondrial oxidative phosphorylation rather than glycolysis by substituting galactose (10 mM) for glucose (25 mM) in the growth media (DMEM, Life Technologies).
High-glucose media: high-glucose DMEM (Invitrogen 11995-065) containing 25 mM glucose, 1.0 mM sodium pyruvate, supplemented with 5 mM N-(2-hydroxyethyl)piperazine-N′-(2-ethanesulfonic acid) (HEPES), and 10% FBS. Galactose media: DMEM deprived of glucose (Invitrogen 11966-025), supplemented with 10 mM galactose, 2.0 mM glutamine (6 mM final), 5.0 mM HEPES, 10% FBS, and 1.0 mM sodium pyruvate.
For the cytotoxicity assay, cells were plated at 20,000 cells/well in 100 μL of cell culture media in 96-well plates and allowed to grow overnight. The cells were treated for 24 h with 2.0 or 20 μM of each compound. All compounds were dissolved in DMSO with a stock concentration of 4 mM. The first dilution step of compounds was prepared in DMSO (200× stock solutions), while the second dilution step was carried out in a complete cell culture medium (5% DMSO). Of this dilution, 10 μL were added to the wells of the 96-well plate, with a final DMSO concentration of 0.5%. Rotenone, a well-known mitochondrial inhibitor, was used as a reference compound. After treatment, cellular viability was assessed by using two different assays, run on independent plates: the CellTiter-Glo (CTG) Luminescent Cell Viability Assay (Promega), which determines the number of viable cells based on the quantitation of the ATP present, and the thiazolyl blue tetrazolium […] (MTT) dye (Aldrich), which is converted to water-insoluble MTT formazan crystals by mitochondrial dehydrogenases of living cells. Each experimental condition (i.e., control, reference, and compounds’ doses) has been tested in three technical replicates.

[3] = Liver microsomal stability, phase I (NADPH), dog; assay type: in vitro ADME; details: for dog LM_NADPH parent compound remaining at the last time point (in parentheses): 4.6 μM, 60 min; for half-life at 4.6 μM: dog, liver microsomes, pH 7.5, 0.1% DMSO, n ≥ 3, read-out: dog LM_NADPH t1/2
Procedure: […] The final concentration was 4.6 μM. After preincubation, the cofactors (NADPH, G6P, G6PDH, and MgCl2 predissolved in 0.1 M Tris–HCl) were added to the incubation mixture and the incubation was continued at 37 °C for 1 h.
(§1) For both phase I and II studies: At each time point (0, 5, 15, 30, and 60 min), 30 μL of the incubation mixture was diluted with 200 μL of cold CH3CN spiked with 200 nM of an appropriate internal standard, followed by centrifugation at 3270g for 15 min. The supernatant was further diluted with H2O (1:1) for analysis. A reference incubation mixture (microsomes without cofactors) was prepared for each test compound and analyzed at t = 0 and 60 min in order to verify the compound’s stability in the matrix. The two time points were diluted as for the time points of the incubation mixture above. The supernatants were analyzed by LC/MS–MS on a Waters ACQUITY UPLC/MS TQD system consisting of a TQD (triple quadrupole detector) mass spectrometer equipped with an electrospray ionization interface and a photodiode array eλ detector. Electrospray ionization was applied in positive mode. Compound-dependent parameters as MRM transitions and collision energy were developed for each compound. The analyses were run on an ACQUITY UPLC BEH C18 (50 × 2.1 mm ID, particle size 1.7 μm) with a VanGuard BEH C18 precolumn (5 × 2.1 mm ID, particle size 1.7 μm) at 40 °C, using H2O + 0.1% HCOOH (A) and CH3CN + 0.1% HCOOH (B) as the mobile phase. The percentage of test compound remaining at each time point relative to t = 0 was calculated by the response factor on the basis of the internal standard peak area. The percentage of test compound versus time was plotted and fitted by GraphPad Prism (GraphPad Software, Version 5 for Windows, CA, USA, www.graphpad.com) to estimate the compound’s half-life (t1/2), which was reported as mean value along with the standard deviation (n = 3).

[4] = Liver microsomal stability, phase II (UDPGA), human; assay type: in vitro ADME; details: for human LM_UDPGA parent compound remaining at the last time point (in parentheses): 4.6 μM, 60 min; for half-life at 4.6 μM: human, liver microsomes, pH 7.5, 0.1% DMSO, n ≥ 3, read-out: human LM_UDPGA t1/2
Procedure: Phase II: 10 mM DMSO stock solution of the test compound was preincubated at 37 °C for 15 min with human liver microsomes added alamethicin in 0.1 M Tris–HCl buffer (pH 7.5) with 10% DMSO. The final concentration was 4.6 μM. After preincubation, the cofactors (UDPGA, D-saccharic acid lactone, and MgCl2 predissolved in 0.1 M Tris–HCl) were added to the incubation mixture and the incubation was continued at 37 °C for 1 h.
as §1

Structure (SMILES) | solubility kinetic at 24 h, 250 µM [1] [µM] | HepG2 (% survival) [2] [%] | dog LM_NADPH parent compound remaining at the last time point (in parentheses) [3] [%] | half-life at 4.6 μM [3] [h] | human LM_UDPGA parent compound remaining at the last time point (in parentheses) [4] [%] | half-life at 4.6 μM [4] [h] | solubility kinetic at 24 h [1] [µM]
COc1ccc2[nH]c3c(c2c1)CN(C(=O)c1cc(C(F)(F)F)[nH]n1)CC3 [Compound 3, (8-Methoxy-1,3,4,5-tetrahydropyrido[4,3-b]indol-2-yl)-[5-(trifluoromethyl)-1H-pyrazol-3-yl]methanone] | 237 ± 11 (≈ 86.3 µg/mL) | >80 | 68 | > 1 | – | – | –
COc1cc(F)c2[nH]c3c(c2c1)CN(C(=O)c1cc(C(F)(F)F)[nH]n1)CC3 [Compound 25, (6-Fluoro-8-methoxy-1,3,4,5-tetrahydro-2H-pyrido[4,3-b]indol-2-yl)-(5-(trifluoromethyl)-1H-pyrazol-3-yl)methanone] | 2 ± 1 (≈ 0.765 µg/mL) | >80 | 90 | > 1 | – | – | –
O=C(c1cc(C(F)(F)F)[nH]n1)N1CCc2[nH]c3c(F)cccc3c2C1 [Compound 20, (6-Fluoro-1,3,4,5-tetrahydro-2H-pyrido[4,3-b]indol-2-yl)-(5-(trifluoromethyl)-1H-pyrazol-3-yl)methanone] | 9 ± 4 (≈ 3.17 µg/mL) | >80 | 85 | > 1 | – | – | –
O=C(c1cc(C(F)(F)F)[nH]n1)N1CCc2[nH]c3c(F)ccc(F)c3c2C1 [Compound 29, (6,9-Difluoro-1,3,4,5-tetrahydro-2H-pyrido[4,3-b]indol-2-yl)-(5-(trifluoromethyl)-1H-pyrazol-3-yl)methanone] | 36 ± 5 (≈ 13.3 µg/mL) | >80 | 93 | > 1 | – | – | –
Cc1ccc(F)c2[nH]c3c(c12)CN(C(=O)c1cc(C(F)(F)F)[nH]n1)[C@H](C)C3 [Compound 39, (R)-(6-Fluoro-3,9-dimethyl-1,3,4,5-tetrahydro-2H-pyrido[4,3-b]indol-2-yl)-(5-(trifluoromethyl)-1H-pyrazol-3-yl)methanone] | – | >80 | 92 | > 1 | 79 | > 1 | < 1
Cc1ccc(F)c2[nH]c3c(c12)CN(C(=O)c1cc(C(F)(F)F)[nH]n1)CC3 [Compound 30, (6-Fluoro-9-methyl-1,3,4,5-tetrahydro-2H-pyrido[4,3-b]indol-2-yl)-(5-(trifluoromethyl)-1H-pyrazol-3-yl)methanone] | – | >80 | 92 | > 1 | 75 | > 1 | < 1

— publication PMC8011931, “Identification, Structure–Activity Relationship, and Biological Characterization of 2,3,4,5-Tetrahydro-1H-pyrido[4,3-b]indoles as a Novel Class of CFTR Potentiators” (Journal of Medicinal Chemistry, 2020)
